From US6444617B1, “Fused-heterocycle dicarboxylic acid diamide derivatives or salts thereof, herbicide and usage thereof” (Nihon Nohyaku Co., Ltd., priority 1998, dated 2002)

Legend:
Format in all cases: in vivo
soybean plant = test: Test Example 4: phytotoxicity to upland crop plants, treatment after emergence; settings: dosage 5 kg/ha, sprayed after emergence, judged 14 days after treatment
From the text: (§1) Herbicidal Effect on Upland Weeds After Emergence Polyethylene-made vats having a size of 10 cm (length)×20 cm (width)×5 cm (height) were filled with soil, sown with seeds of the following noxious upland weeds and with seeds of soybean plant and wheat as upland crop plants, and then covered with soil. The plants were made to grow up until they reached the leaf-stages mentioned below, after which an agent comprising a prescribed concentration of a compound of the present invention (listed in Tables 1 to 14) as active ingredient was sprayed. Fourteen days after the treatment, the herbicidal effect was investigated, from which weed-killing rate was calculated in the same manner as in Test Example 1 and the results were judged. […] Sample weeds, their leaf stages, and leaf stages of soybean plant and wheat were as follows: [table]

wheat = test: as above; settings: dosage 5 kg/ha, sprayed after emergence, judged 14 days after treatment
From the text: as §1

[1] = system: barnyard grass (Echinochloa crus-galli Beauv.); test: Test Example 2: herbicidal effect on paddy field weeds after emergence; settings: Dosage 5 kg/ha; one-leaved stage; 21 days after treatment
Description: (§2) Test for Herbicidal Effect on Paddy Field Weeds After Emergence. Soil was filled into 1/10000 are pots and brought into a state of paddy field, in which seeds of barnyard grass (Echinochloa crus-galli Beauv.), bulrush (Scirpus juncoides Roxb.) and monochoria (Monochoria vaginalis Presl) were made to reach one-leaved stage. The soil in the pots were treated with a solution containing a predetermined dosage of a chemical agent comprising a compound of the present invention listed in Tables 1 to 14. Twenty one days after the treatment, the herbicidal effect was investigated and the result was compared with that in untreated plot to calculate the weed-controlling rate, and the herbicidal effect was judged according to the same criterion as in Test Example 1.

[2] = system: bulrush (Scirpus juncoides Roxb.); test: as above; settings: Dosage 5 kg/ha; one-leaved stage; 21 days after treatment
Description: as §2

[3] = system: monochoria (Monochoria vaginalis Presl); test: as above; settings: Dosage 5 kg/ha; one-leaved stage; 21 days after treatment
Description: as §2

[4] = system: forxtail grass (Alopecurus aequalis var. amurensis Ohwi), Am; test: Test Example 3: herbicidal effect on upland weeds before emergence; settings: foxtail grass, dosage 5 kg/ha
Description: (§3) Herbicidal Effect on Upland Weeds Before Emergence […] Then, a liquid preparation of an agent comprising a prescribed concentration of a compound of the present invention (the compounds listed in Tables 1-14) as active ingredient was sprayed. Fourteen days after the treatment, the herbicidal effect was investigated, from which weed-killing rate was calculated in the same manner as in Test Example 1, and the herbicidal effect was judged.

[5] = system: cleavers (Galium aparine L.), Ga; test: as above; settings: dosage 5 kg/ha
Description: as §3

[6] = system: velvetleaf (Abutilon theophtasti L.), At; test: as above; settings: dosage 5 kg/ha
Description: as §3

[7] = system: barnyard grass (Echinochloa crus-galli Beauv.), Ec; test: as above; settings: dosage 5 kg/ha
Description: as §3

[8] = system: bird's eye speedwell (Veronica persica Poir.), Vp; test: as above; settings: dosage 5 kg/ha
Description: as §3

[9] = system: cocklebur (Xanthium strumarium L.), Xs; test: as above; settings: dosage 5 kg/ha
Description: as §3

[10] = system: barnyard grass (Echinochloa crus-galli Beauv.); test: Test Example 1: herbicidal effect on paddy field weeds before emergence; settings: Dosage 5 kg/ha
Description: as §2, with “Before Emergence” for “After Emergence.”, “Beauv.) and” for “Beauv.),”, “Roxb.)” for “Roxb.) and monochoria (Monochoria vaginalis Presl)”, “be before germination.” for “reach one-leaved stage.”, “investigated,” for “investigated and”, “following criterion: […]” for “same criterion as in Test Example 1.”

[11] = system: bulrush (Scirpus juncoides Roxb.); test: as above; settings: Dosage 5 kg/ha
Description: as §2, with “Before Emergence” for “After Emergence.”, “Beauv.) and” for “Beauv.),”, “Roxb.)” for “Roxb.) and monochoria (Monochoria vaginalis Presl)”, “be before germination.” for “reach one-leaved stage.”, “investigated,” for “investigated and”, “following criterion: […]” for “same criterion as in Test Example 1.”

[12] = system: forxtail grass (Alopecurus aequalis var. amurensis Ohwi), Am; test: Test Example 4: herbicidal effect on upland weeds after emergence; settings: dosage 5 kg/ha; sprayed after emergence; judged 14 days after treatment
From the text: as §1

[13] = system: cleavers (Galium aparine L.), Ga; test: as above; settings: dosage 5 kg/ha; sprayed after emergence; judged 14 days after treatment
From the text: as §1

[14] = system: velvetleaf (Abutilon theophtasti L.), At; test: as above; settings: dosage 5 kg/ha; sprayed after emergence; judged 14 days after treatment
From the text: as §1

[15] = system: barnyard grass (Echinochloa crus-galli Beauv.), Ec; test: as above; settings: dosage 5 kg/ha; sprayed after emergence; judged 14 days after treatment
From the text: as §1

[16] = system: bird's eye speedwell (Veronica persica Poir.), Vp; test: as above; settings: dosage 5 kg/ha; sprayed after emergence; judged 14 days after treatment
From the text: as §1

[17] = system: cocklebur (Xanthium strumarium L.), Xs; test: as above; settings: dosage 5 kg/ha; sprayed after emergence; judged 14 days after treatment
From the text: as §1

wheat (Wh) = test: Test Example 3: phytotoxicity to upland crop plants, treatment before emergence; settings: dosage 5 kg/ha
Description: as §3, with “judged. At the same time, phytotoxicity to soybean plant and wheat was investigated and judged according to the criterion mentioned below.” for “judged.”

soybean plant (So) = test: as above; settings: dosage 5 kg/ha
Description: as §3, with “judged. At the same time, phytotoxicity to soybean plant and wheat was investigated and judged according to the criterion mentioned below.” for “judged.”

| Compound | Phytotoxicity So (soybean plant) | Phytotoxicity Wh (wheat) | Post-emergence treatment Barnyard grass (herbicidal effect) [1] | Post-emergence treatment Bulrush (herbicidal effect) [2] | Post-emergence treatment Monochoria (herbicidal effect) [3] | Herbicidal effect Am [4] | Herbicidal effect Ga [5] | Herbicidal effect At [6] | Herbicidal effect Ec [7] | Herbicidal effect Vp [8] | Herbicidal effect Xs [9] | Pre-emergence treatment Barnyard grass (herbicidal effect) [10] | Pre-emergence treatment Bulrush (herbicidal effect) [11] | Herbicidal effect Am [12] | Herbicidal effect Ga [13] | Herbicidal effect At [14] | Herbicidal effect Ec [15] | Herbicidal effect Vp [16] | Herbicidal effect Xs [17] | Phytotoxicity Wh (wheat (Wh)) | other results |
| --- | --- | --- | --- | --- | --- | --- | --- | --- | --- | --- | --- | --- | --- | --- | --- | --- | --- | --- | --- | --- | --- |
| CCc1ccc(Cl)c(CC)c1NC(=O)c1cc2ccccc2nc1C(=O)NC1CCCC1 [359-6] | 3 (Crop-killing rate is 70-89%.) | 2 (Crop-killing rate is 40-69%.) | 5 (Weed-killing rate is 100%.) | 5 (Weed-killing rate is 100%.) | 5 (Weed-killing rate is 100%.) | 5 (Weed-killing rate is 100%.) | 5 (Weed-killing rate is 100%.) | 5 (Weed-killing rate is 100%.) | 5 (Weed-killing rate is 100%.) | 5 (Weed-killing rate is 100%.) | 5 (Weed-killing rate is 100%.) | 5 (Weed-killing rate is 100%.) | 5 (Weed-killing rate is 100%.) | 5 (Weed-killing rate is 100%.) | 5 (Weed-killing rate is 100%.) | 5 (Weed-killing rate is 100%.) | 5 (Weed-killing rate is 100%.) | 5 (Weed-killing rate is 100%.) | 5 (Weed-killing rate is 100%.) | 0 (Crop-killing rate is 0-20% (No Phytotoxicity).) | Phytotoxicity So (soybean plant (So)): 0 (Crop-killing rate is 0-20% (No Phytotoxicity).) |
| CCCNC(=O)c1nc2cc(F)ccc2cc1C(=O)Nc1c(CC)ccc(Cl)c1CC [Compound No. 158, 3-(3-Chloro-2,6-diethylphenyl)-aminocarbonyl-7-fluoro-2-quinolinecarboxylic Acid n-Propylamide] | 2 (Crop-killing rate is 40-69%.) | 4 (Crop-killing rate is 90-99%.) | 5 (Weed-killing rate is 100%.) | 5 (Weed-killing rate is 100%.) | 5 (Weed-killing rate is 100%.) | 4 (Weed-killing rate is 90-99%.) | 5 (Weed-killing rate is 100%.) | 5 (Weed-killing rate is 100%.) | 5 (Weed-killing rate is 100%.) | 5 (Weed-killing rate is 100%.) | 4 (Weed-killing rate is 90-99%.) | 5 (Weed-killing rate is 100%.) | 5 (Weed-killing rate is 100%.) | 4 (Weed-killing rate is 90-99%.) | 5 (Weed-killing rate is 100%.) | 5 (Weed-killing rate is 100%.) | 5 (Weed-killing rate is 100%.) | 5 (Weed-killing rate is 100%.) | 4 (Weed-killing rate is 90-99%.) | 4 (Crop-killing rate is 90-99%.) | Phytotoxicity So (soybean plant (So)): 1 (Crop-killing rate is 1-39%.) |
| CCNC(=O)c1nc2ncccc2cc1C(=O)Nc1c(CC)ccc(Cl)c1CC [Compound No. 360, 3-(3-Chloro-2,6-diethylphenyl)-aminocarbonyl-1,8-naphthylidine-2-carboxylic Acid Ethylamide] | 3 (Crop-killing rate is 70-89%.) | 4 (Crop-killing rate is 90-99%.) | 5 (Weed-killing rate is 100%.) | 5 (Weed-killing rate is 100%.) | 5 (Weed-killing rate is 100%.) | 5 (Weed-killing rate is 100%.) | 5 (Weed-killing rate is 100%.) | 5 (Weed-killing rate is 100%.) | 5 (Weed-killing rate is 100%.) | 5 (Weed-killing rate is 100%.) | 5 (Weed-killing rate is 100%.) | 5 (Weed-killing rate is 100%.) | 5 (Weed-killing rate is 100%.) | 5 (Weed-killing rate is 100%.) | 4 (Weed-killing rate is 90-99%.) | 5 (Weed-killing rate is 100%.) | 5 (Weed-killing rate is 100%.) | 5 (Weed-killing rate is 100%.) | 5 (Weed-killing rate is 100%.) | 4 (Crop-killing rate is 90-99%.) | Phytotoxicity So (soybean plant (So)): 3 (Crop-killing rate is 70-89%.) |
| CCCNC(=O)c1nc2c(cc1C(=O)Nc1c(CC)ccc(Cl)c1CC)COCC2 [Compound No. 462, 3-(3-Chloro-2,6-diethylphenyl)-aminocarbonyl-7,8-dihydro-5H-pyrano[4,3-b]pyridine-2-carboxylic Acid n-Propylamide] | 5 (Crop-killing rate is 100%.) | 5 (Crop-killing rate is 100%.) | 5 (Weed-killing rate is 100%.) | 5 (Weed-killing rate is 100%.) | 5 (Weed-killing rate is 100%.) | 5 (Weed-killing rate is 100%.) | 5 (Weed-killing rate is 100%.) | 5 (Weed-killing rate is 100%.) | 5 (Weed-killing rate is 100%.) | 5 (Weed-killing rate is 100%.) | 5 (Weed-killing rate is 100%.) | 5 (Weed-killing rate is 100%.) | 5 (Weed-killing rate is 100%.) | 5 (Weed-killing rate is 100%.) | 5 (Weed-killing rate is 100%.) | 5 (Weed-killing rate is 100%.) | 5 (Weed-killing rate is 100%.) | 5 (Weed-killing rate is 100%.) | 5 (Weed-killing rate is 100%.) | 5 (Crop-killing rate is 100%.) | Phytotoxicity So (soybean plant (So)): 5 (Crop-killing rate is 100%.) |
